# US11117900B2 (Vertex Pharmaceuticals Incorporated, priority 2012, dated 2021)
# Test system: HCT116 colorectal cancer cells
# Experiment: Cisplatin sensitization assay (96 h MTS cell viability);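 note: compound concentration needed to lower the IC50 of Cisplatin alone by a set fold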
# Format: cell-based
# Settings: Cisplatin sensitization value
# Summary of the method: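 HCT116 cells were dosed simultaneously with compound and cisplatin as a full matrix of 2-fold serial dilutions from 10 μM top final concentration. Incubation was 96 h at 37° C., 5% CO2, followed by 1 h with MTS reagent for the viability read-out. Sensitization values were binned into +++, ++ and + categories.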
structure (smiles),measurement,value
"Nc1nn2cc(F)cnc2c1C(=O)Nc1cnccc1N1CCC(C(=O)N2CCC3(COC3)C2)CC1 [I-G-84, N-(4-(4-(2-oxa-6-azaspiro[3.4]octane-6-carbonyl)piperidin-1-yl)pyridin-3-yl)-2-amino-6-fluoropyrazolo[1,5-a]pyrimidine-3-carboxamide]",Cisplatin Sensitization Assay,+++ (Compounds with a Cisplatin sensitization value of <0.02 μM are marked with “+++.”)
"CN(C)CCN(C)C(=O)C1CCN(c2c(F)cncc2NC(=O)c2c(N)nn3cc(F)cnc23)CC1 [I-G-31, 2-amino-N-(4-(4-((2-(dimethylamino)ethyl)(methyl)carbamoyl)piperidin-1-yl)-5-fluoropyridin-3-yl)-6-fluoropyrazolo[1,5-a]pyrimidine-3-carboxamide]",Cisplatin Sensitization Assay,+++ (Compounds with a Cisplatin sensitization value of <0.02 μM are marked with “+++.”)
"N#CCc1cnc2c(C(=O)Nc3cnccc3OC3CCCCC3)c(N)nn2c1 [I-O-39, 2-amino-6-(cyanomethyl)-N-(4-(cyclohexyloxy)pyridin-3-yl)pyrazolo[1,5-a]pyrimidine-3-carboxamide]",Cisplatin Sensitization Assay,+++ (Compounds with a Cisplatin sensitization value of <0.02 μM are marked with “+++.”)
"COC(=O)C1CCN(c2ccncc2NC(=O)c2c(N)nn3cc(Cl)cnc23)CC1 [I-N-74, methyl-1-(3-(2-amino-6-chloropyrazolo[1,5-a]pyrimidine-3-carboxamido)pyridin-4-yl)piperidine-4-carboxylate]",Cisplatin Sensitization Assay,+++ (Compounds with a Cisplatin sensitization value of <0.02 μM are marked with “+++.”)
"CN(C)C1CN(C2CCN(c3ccncc3NC(=O)c3c(N)nn4cc(Cl)cnc34)CC2)C1 [I-N-94, 2-amino-6-chloro-N-(4-(4-(3-(dimethylamino)azetidin-1-yl)piperidin-1-yl)pyridin-3-yl)pyrazolo[1,5-a]pyrimidine-3-carboxamide]",Cisplatin Sensitization Assay,+++ (Compounds with a Cisplatin sensitization value of <0.02 μM are marked with “+++.”)
"Cc1cccnc1-c1ccncc1NC(=O)c1c(N)nn2cc(F)cnc12 [I-C-36, 2-amino-6-fluoro-N-(3-methyl-[2,4′-bipyridin]-3′-yl)pyrazolo[1,5-a]pyrimidine-3-carboxamide]",Cisplatin Sensitization Assay,+++ (Compounds with a Cisplatin sensitization value of <0.02 μM are marked with “+++.”)
"Cn1nccc1-c1ccncc1NC(=O)c1c(N)nn2cc(F)cnc12 [I-C-57, 2-amino-6-fluoro-N-(4-(1-methyl-1H-pyrazol-5-yl)pyridin-3-yl)pyrazolo[1,5-a]pyrimidine-3-carboxamide]",Cisplatin Sensitization Assay,+++ (Compounds with a Cisplatin sensitization value of <0.02 μM are marked with “+++.”)
"CN(C)C1CCN(C2CCN(c3ccncc3NC(=O)c3c(N)nn4cc(Cl)cnc34)CC2)C1 (centres unmarked) [I-N-106, 2-amino-6-chloro-N-(4-(4-(3-(dimethylamino)pyrrolidin-1-yl)piperidin-1-yl)pyridin-3-yl)pyrazolo[1,5-a]pyrimidine-3-carboxamide]",Cisplatin Sensitization Assay,+++ (Compounds with a Cisplatin sensitization value of <0.02 μM are marked with “+++.”)
"Nc1nn2cc(F)cnc2c1C(=O)Nc1cncc(F)c1N1CCC(S(=O)(=O)N2CCN3CCC2CC3)CC1 [I-N-273, N-(4-(4-(1,4-diazabicyclo[3.2.2]nonan-4-ylsulfonyl)piperidin-1-yl)-5-fluoropyridin-3-yl)-2-amino-6-fluoropyrazolo[1,5-a]pyrimidine-3-carboxamide]",Cisplatin Sensitization Assay,+++ (Compounds with a Cisplatin sensitization value of <0.02 μM are marked with “+++.”)
"CS(=O)(=O)N1CCN(c2ccncc2NC(=O)c2c(N)nn3cc(F)cnc23)CC1 [I-N-178, 2-amino-6-fluoro-N-(4-(4-(methylsulfonyl)piperazin-1-yl)pyridin-3-yl)pyrazolo[1,5-a]pyrimidine-3-carboxamide]",Cisplatin Sensitization Assay,+++ (Compounds with a Cisplatin sensitization value of <0.02 μM are marked with “+++.”)
"Cc1nnccc1-c1ccncc1NC(=O)c1c(N)nn2cc(F)cnc12 [I-C-31, 2-amino-6-fluoro-N-(4-(3-methylpyridazin-4-yl)pyridin-3-yl)pyrazolo[1,5-a]pyrimidine-3-carboxamide]",Cisplatin Sensitization Assay,+++ (Compounds with a Cisplatin sensitization value of <0.02 μM are marked with “+++.”)
"CN1CCN(c2ccncc2NC(=O)c2c(N)nn3cc(F)cnc23)CC1=O [I-N-209, 2-amino-6-fluoro-N-(4-(4-methyl-3-oxopiperazin-1-yl)pyridin-3-yl)pyrazolo[1,5-a]pyrimidine-3-carboxamide]",Cisplatin Sensitization Assay,+++ (Compounds with a Cisplatin sensitization value of <0.02 μM are marked with “+++.”)
"Nc1nn2cc(Cl)cnc2c1C(=O)Nc1cnccc1OCCO [I-O-66, 2-amino-6-chloro-N-(4-(2-hydroxyethoxy)pyridin-3-yl)pyrazolo[1,5-a]pyrimidine-3-carboxamide]",Cisplatin Sensitization Assay,+ (Compounds with a Cisplatin sensitization value >0.2 μM but <5 μM are marked with “+.”)
"Nc1nn2cc(F)cnc2c1C(=O)Nc1cncc(F)c1N1CCN(C(=O)C2CCOC2)CC1 (centres unmarked) [I-N-274, 2-amino-6-fluoro-N-(5-fluoro-4-(4-(tetrahydrofuran-3-carbonyl)piperazin-1-yl)pyridin-3-yl)pyrazolo[1,5-a]pyrimidine-3-carboxamide]",Cisplatin Sensitization Assay,+++ (Compounds with a Cisplatin sensitization value of <0.02 μM are marked with “+++.”)
"CN(C)CCOCCOc1ccncc1NC(=O)c1c(N)nn2cc(Cl)cnc12 [I-O-47, 2-amino-6-chloro-N-(4-(2-(2-(dimethylamino)ethoxy)ethoxy)pyridin-3-yl)pyrazolo[1,5-a]pyrimidine-3-carboxamide]",Cisplatin Sensitization Assay,+ (Compounds with a Cisplatin sensitization value >0.2 μM but <5 μM are marked with “+.”)
"CN1CCN(C(=O)c2ccc(-c3ccncc3NC(=O)c3c(N)nn4cc(F)cnc34)cc2)CC1 [I-C-25, 2-amino-6-fluoro-N-(4-(4-(4-methylpiperazine-1-carbonyl)phenyl)pyridin-3-yl)pyrazolo[1,5-a]pyrimidine-3-carboxamide]",Cisplatin Sensitization Assay,+++ (Compounds with a Cisplatin sensitization value of <0.02 μM are marked with “+++.”)
"N#CCc1cnc2c(C(=O)Nc3cnccc3OC3CCC3)c(N)nn2c1 [I-O-36, 2-amino-6-(cyanomethyl)-N-(4-cyclobutoxypyridin-3-yl)pyrazolo[1,5-a]pyrimidine-3-carboxamide]",Cisplatin Sensitization Assay,+++ (Compounds with a Cisplatin sensitization value of <0.02 μM are marked with “+++.”)
"Cc1nn(C)cc1-c1ccncc1NC(=O)c1c(N)nn2cc(F)cnc12 [I-C-63, 2-amino-N-(4-(1,3-dimethyl-1H-pyrazol-4-yl)pyridin-3-yl)-6-fluoropyrazolo[1,5-a]pyrimidine-3-carboxamide]",Cisplatin Sensitization Assay,+++ (Compounds with a Cisplatin sensitization value of <0.02 μM are marked with “+++.”)
"N#CC1(C(=O)N2CCC(c3ccncc3NC(=O)c3c(N)nn4cc(F)cnc34)CC2)CC1 [I-C-71, 2-amino-N-(4-(1-(1-cyanocyclopropanecarbonyl)piperidin-4-yl)pyridin-3-yl)-6-fluoropyrazolo[1,5-a]pyrimidine-3-carboxamide]",Cisplatin Sensitization Assay,+++ (Compounds with a Cisplatin sensitization value of <0.02 μM are marked with “+++.”)
"Nc1nn2cc(Cl)cnc2c1C(=O)Nc1cnccc1OC1CN2CCC1CC2 (centres unmarked) [I-O-62, 2-amino-6-chloro-N-(4-(quinuclidin-3-yloxy)pyridin-3-yl)pyrazolo[1,5-a]pyrimidine-3-carboxamide]",Cisplatin Sensitization Assay,+++ (Compounds with a Cisplatin sensitization value of <0.02 μM are marked with “+++.”)
"Nc1nn2cc(Cl)cnc2c1C(=O)Nc1cnccc1N1CCn2ccnc2C1 [I-N-44, 2-amino-6-chloro-N-(4-(5,6-dihydroimidazo[1,2-a]pyrazin-7(8H)-yl)pyridin-3-yl)pyrazolo[1,5-a]pyrimidine-3-carboxamide]",Cisplatin Sensitization Assay,++ (Compounds with a Cisplatin sensitization value >0.02 μM but <0.2 μM are marked with “++.”)
"Nc1nn2cc(F)cnc2c1C(=O)Nc1cnccc1-c1cccnc1Cl [I-C-37, 2-amino-N-(2-chloro-[3,4′-bipyridin]-3′-yl)-6-fluoropyrazolo[1,5-a]pyrimidine-3-carboxamide]",Cisplatin Sensitization Assay,+++ (Compounds with a Cisplatin sensitization value of <0.02 μM are marked with “+++.”)
"Nc1nn2cc(F)cnc2c1C(=O)Nc1cncc(F)c1N1CCC(C(=O)N2CCOCC2)CC1 [I-G-36, 2-amino-6-fluoro-N-(5-fluoro-4-(4-(morpholine-4-carbonyl)piperidin-1-yl)pyridin-3-yl)pyrazolo[1,5-a]pyrimidine-3-carboxamide]",Cisplatin Sensitization Assay,+++ (Compounds with a Cisplatin sensitization value of <0.02 μM are marked with “+++.”)
"Cc1cc(C(=O)N2CCN(C)CC2)ccc1-c1ccncc1NC(=O)c1c(N)nn2cc(F)cnc12 [I-C-45, 2-amino-6-fluoro-N-(4-(2-methyl-4-(4-methylpiperazine-1-carbonyl)phenyl)pyridin-3-yl)pyrazolo[1,5-a]pyrimidine-3-carboxamide]",Cisplatin Sensitization Assay,+++ (Compounds with a Cisplatin sensitization value of <0.02 μM are marked with “+++.”)
"Nc1nn2cc(F)cnc2c1C(=O)Nc1cncc(F)c1N1CCC(C(=O)O)CC1 [I-N-92, 1-(3-(2-amino-6-fluoropyrazolo[1,5-a]pyrimidine-3-carboxamido)-5-fluoropyridin-4-yl)piperidine-4-carboxylic acid]",Cisplatin Sensitization Assay,+ (Compounds with a Cisplatin sensitization value >0.2 μM but <5 μM are marked with “+.”)
"Cc1ccncc1NC(=O)c1c(N)nn2cc(Cl)cnc12 [I-C-2, 2-amino-6-chloro-N-(4-methylpyridin-3-yl)pyrazolo[1,5-a]pyrimidine-3-carboxamide]",Cisplatin Sensitization Assay,++ (Compounds with a Cisplatin sensitization value >0.02 μM but <0.2 μM are marked with “++.”)
